# From patent US8017612B2, “Piperazine compound and use thereof as a HCV polymerase inhibitor” (priority 2006, dated 2011)
# Assays:
# [1] = target: T1, HCV polymerase (NS5B) type 1b (Hepatitis C virus genotype 1b, UniProt P26663); assay: Assay of enzyme (HCV polymerase) inhibitory activity, type 1b enzyme; type: biochemical, HCV BK strain (type 1b)
# T1 construct: a region encoding NS5B (J Virol 1991 March, 65(3), 1105-13, 544 amino acids after deletion of 47 amino acids on the C-terminal); 6xHis (C); made in house; host or cells: Escherichia coli
# Summary of the method: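 IC50 derived from [3H]UTP incorporation into TCA-insoluble RNA, compared with and without test compound. Reaction (25 °C, 60 min, Tris pH 7.5, 5 mM MgCl2): E. coli-expressed 1b NS5B Δ47 with His tag at 0.5 μg/ml, 5 μg/ml run-off substrate RNA, ATP/GTP/CTP 50 μM, UTP 2 μM.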
# [2] = target: T2, HCV polymerase (NS5B) type 1a (Hepatitis C virus genotype 1a, UniProt P26664); assay: Assay of enzyme (HCV polymerase) inhibitory activity, type 1a enzyme; type: biochemical, HCV type 1a (cloned from the blood of patients)
# T2 construct: made in house; host or cells: Escherichia coli (by the 'similar method' of the 1b enzyme)
# Summary of the method: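 Reactions ran 60 min at 25° C in 20 mM Tris-HCl pH 7.5, 5 mM MgCl2, 50 mM NaCl, holding genotype 1a NS5B (1.5 μg/ml, Δ47 C-terminus, 6His), substrate RNA 5 μg/ml, UTP 2 μM with tritiated UTP and other NTPs 50 μM. IC50 derived from incorporated radiolabel in filter-trapped RNA relative to uninhibited reaction.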
# [3] = HCV polymerase inhibitory activity IC50, 1b, type 1b enzyme
# [4] = HCV polymerase inhibitory activity IC50, 1a, type 1a enzyme
# [5] = HCV polymerase inhibitory activity (IC50), 1b, type 1b enzyme 0.5 μg/ml, 25° C., 60 min
# [6] = HCV polymerase inhibitory activity (IC50), 1a, type 1a enzyme 1.5 μg/ml, 25° C., 60 min
Structure (SMILES),"IC50 [1, 3] [µM]","IC50 [2, 4] [µM]","IC50 [1, 5] [µM]","IC50 [2, 6] [µM]"
"CCCc1ccc(CNC(=O)[C@H]2CN(C(=O)Nc3ccccc3C(=O)OCc3ccccc3)CCN2S(=O)(=O)c2ccc(OC(F)(F)F)cc2)cc1 [Example 837, 2-{[(R)-3-(4-propyl-benzylcarbamoyl)-4-(4-trifluoromethoxy-benzenesulfonyl)-piperazine-1-carbonyl]-amino}-benzoic acid benzyl ester]",> 1,> 1,–,–
"CCc1cc(S(=O)(=O)N2CCN(C(C)=O)C[C@@H]2C(=O)NCc2ccc(C(C)C)cc2)ccc1OC [Example 236, (R)-4-acetyl-1-(3-ethyl-4-methoxy-benzenesulfonyl)-piperazine-2-carboxylic acid 4-isopropyl-benzylamide]",–,–,0.1 to 1,0.1 to 1
"O=C(NCc1ccc(OC(F)F)c(F)c1)[C@H]1CN(c2nc3nc(C4CC4)[nH]c(=O)c3s2)CCN1S(=O)(=O)c1ccc(OC(F)(F)F)cc1 [Example 1113, (R)-4-(5-cyclopropyl-7-oxo-6,7-dihydro-thiazolo[4,5-d]pyrimidin-2-yl)-1-(4-trifluoromethoxy-benzenesulfonyl)-piperazine-2-carboxylic acid 4-difluoromethoxy-3-fluoro-benzylamide]",< 0.1,< 0.1,–,–
"CC(=O)N1CCN(S(=O)(=O)c2ccc(C(C)C)cc2)C(C(=O)NCc2ccc(N3CCOCC3)cc2)C1 (stereo not drawn) [Example 80, 4-acetyl-1-(4-isopropyl-benzenesulfonyl)-piperazine-2-carboxylic acid 4-morpholin-4-yl-benzylamide]",–,–,> 1,> 1
"CC(C)(C)c1ccc(CNC(=O)[C@H]2CN(c3ccnc(O)n3)CCN2S(=O)(=O)c2ccc(OC(F)(F)F)cc2)cc1 [Example 581, (R)-4-(2-hydroxy-pyrimidin-4-yl)-1-(4-trifluoromethoxy-benzenesulfonyl)-piperazine-2-carboxylic acid 4-tert-butyl-benzylamide]",–,–,< 0.1,< 0.1
"Cc1csc(N2CCN(S(=O)(=O)c3ccc(C(F)(F)F)cc3)[C@@H](C(=O)NCc3ccc(C(C)C)cc3)C2)n1 [Example 184, (R)-4-(4-methyl-thiazol-2-yl)-1-(4-trifluoromethyl-benzenesulfonyl)-piperazine-2-carboxylic acid 4-isopropyl-benzylamide]",–,–,0.1 to 1,0.1 to 1
"CCCc1ccc(CNC(=O)[C@H]2CN(C(C)=O)CCN2S(=O)(=O)c2ccc(C(C)C)cc2)cc1 [Example 294, (R)-4-acetyl-1-(4-isopropyl-benzenesulfonyl)-piperazine-2-carboxylic acid 4-propyl-benzylamide]",–,–,< 0.1,< 0.1
"CC(=O)N1CCN(S(=O)(=O)c2ccc(Cl)c(Cl)c2)C(C(=O)NCc2ccc(C(F)(F)F)cc2)C1 (stereo not drawn) [Example 41, 4-acetyl-1-(3,4-dichloro-benzenesulfonyl)-piperazine-2-carboxylic acid 4-trifluoromethyl-benzylamide]",–,–,> 1,> 1
"CCCc1ccc(CNC(=O)[C@H]2CN(C(=O)Nc3ccccc3)CCN2S(=O)(=O)c2ccc(OC(F)(F)F)cc2)cc1 [Example 830, (R)-4-(4-trifluoromethoxy-benzenesulfonyl)-piperazine-1,3-dicarboxylic acid 1-phenylamide 3-(4-propyl-benzylamide)]",< 0.1,0.1 to 1,–,–
"CCC(F)(F)c1ccc(CNC(=O)[C@H]2CN(C(=O)Nc3ccn(C)n3)CCN2S(=O)(=O)c2ccc(OC(F)(F)F)cc2)cc1 [Example 569, (R)-4-(4-trifluoromethoxy-benzenesulfonyl)-piperazine-1,3-dicarboxylic acid 3-[4-(1,1-difluoro-propyl)-benzylamide] 1-[(1-methyl-1H-pyrazol-3-yl)-amide]]",–,–,< 0.1,0.1 to 1
"CCCc1ccc(CNC(=O)[C@H]2CN(c3nc(C)c(CN(C)C)s3)CCN2S(=O)(=O)c2ccc(OC(F)(F)F)cc2)cc1 [Example 505, (R)-4-(5-dimethylaminomethyl-4-methyl-thiazol-2-yl)-1-(4-trifluoromethoxy-benzenesulfonyl)-piperazine-2-carboxylic acid 4-propyl-benzylamide]",–,–,< 0.1,< 0.1
"CC(=O)N1CCC(CNC(=O)[C@H]2CN(C(C)=O)CCN2S(=O)(=O)c2ccc(OC(F)(F)F)cc2)CC1 [Example 670, (R)-4-acetyl-1-(4-trifluoromethoxy-benzenesulfonyl)-piperazine-2-carboxylic acid (1-acetyl-piperidin-4-ylmethyl)-amide]",> 1,> 1,–,–
"CC(=O)N1CCc2nc(N3CCN(S(=O)(=O)c4ccc(OC(F)(F)F)cc4)[C@@H](C(=O)NCc4ccc(C(C)(C)C)cc4)C3)sc2C1 [Example 589, (R)-4-(5-acetyl-4,5,6,7-tetrahydro-thiazolo[5,4-c]pyridin-2-yl)-1-(4-trifluoromethoxy-benzenesulfonyl)-piperazine-2-carboxylic acid 4-tert-butyl-benzylamide]",–,–,< 0.1,< 0.1
"CCCc1ccc(S(=O)(=O)N2CCN(c3nc(C)c(C(=O)OC(C)(C)C)s3)C[C@@H]2C(=O)NCc2ccc(C(C)C)cc2)cc1 [Example 319, 2-[(R)-3-(4-isopropyl-benzylcarbamoyl)-4-(4-propyl-benzenesulfonyl)-piperazin-1-yl]-4-methyl-thiazole-5-carboxylic acid tert-butyl ester]",–,–,0.1 to 1,> 1
"O=C(NCc1ccc(C2CC2)cc1)[C@H]1CN(C(=O)Cc2ccncc2)CCN1S(=O)(=O)c1ccc(OC(F)(F)F)cc1 [Example 412, (R)-4-(2-pyridin-4-yl-acetyl)-1-(4-trifluoromethoxy-benzenesulfonyl)-piperazine-2-carboxylic acid 4-cyclopropyl-benzylamide]",–,–,0.1 to 1,< 0.1
"Nc1nnnc2nc(N3CCN(S(=O)(=O)c4ccc(OC(F)(F)F)cc4)[C@@H](C(=O)NCc4ccc(OC(F)(F)F)cc4)C3)sc12 [Example 1034, (R)-4-(4-amino-thiazolo[4,5-d][1,2,3]triazin-6-yl)-1-(4-trifluoromethoxy-benzenesulfonyl)-piperazine-2-carboxylic acid 4-trifluoromethoxy-benzylamide]",< 0.1,< 0.1,–,–
"CCCc1ccc(CNC(=O)[C@H]2CN(c3nc(C)c(C(O)C(=O)OCC)s3)CCN2S(=O)(=O)c2ccc(OC(F)(F)F)cc2)cc1 (stereo partly drawn) [Example 856, hydroxy-{4-methyl-2-[(R)-3-(4-propyl-benzylcarbamoyl)-4-(4-trifluoromethoxy-benzenesulfonyl)-piperazin-1-yl]-thiazol-5-yl}-acetic acid ethyl ester]",< 0.1,0.1 to 1,–,–
"CC(=O)N1CCN(S(=O)(=O)c2ccc(OC(F)(F)F)cc2)[C@@H](C(=O)NCc2cccc(O)c2)C1 [Example 637, (R)-4-acetyl-1-(4-trifluoromethoxy-benzenesulfonyl)-piperazine-2-carboxylic acid 3-hydroxy-benzylamide]",–,–,> 1,> 1
"CCC(F)(F)c1ccc(CNC(=O)[C@H]2CN(c3nc4nc[nH]c(=O)c4s3)CCN2S(=O)(=O)c2ccc(OC(F)(F)F)cc2)cc1 [Example 633, (R)-4-(7-oxo-6,7-dihydro-thiazolo[4,5-d]pyrimidin-2-yl)-1-(4-trifluoromethoxy-benzenesulfonyl)-piperazine-2-carboxylic acid 4-(1,1-difluoro-propyl)-benzylamide]",–,–,< 0.1,< 0.1
"CC(=O)N1CCN(S(=O)(=O)c2ccc(C(C)C)cc2)C(C(=O)NCc2ccc(-c3ccccc3Cl)cc2)C1 (stereo not drawn) [Example 142, 4-acetyl-1-(4-isopropyl-benzenesulfonyl)-piperazine-2-carboxylic acid (2′-chloro-biphenyl-4-ylmethyl)-amide]",–,–,> 1,> 1
"O=C(NCc1ccc(OC(F)(F)F)cc1)[C@H]1CN(c2ccc3ncccc3n2)CCN1S(=O)(=O)c1ccc(OC(F)(F)F)cc1 [Example 793, (R)-4-[1,5]naphthyridin-2-yl-1-(4-trifluoromethoxy-benzenesulfonyl)-piperazine-2-carboxylic acid 4-trifluoromethoxy-benzylamide]",< 0.1,< 0.1,–,–
"CC(=O)N1CCN(S(=O)(=O)c2ccc(C(C)C)cc2)C(C(=O)NCc2ccc(Cl)c(Cl)c2)C1 (stereo not drawn) [Example 100, 4-acetyl-1-(4-isopropyl-benzenesulfonyl)-piperazine-2-carboxylic acid 3,4-dichloro-benzylamide]",–,–,> 1,> 1
"O=C(NCc1ccc(OC(F)(F)F)cc1)[C@H]1CN(c2cnc3cncnc3n2)CCN1S(=O)(=O)c1ccc(OC(F)(F)F)cc1 [Example 627, (R)-4-pteridin-7-yl-1-(4-trifluoromethoxy-benzenesulfonyl)-piperazine-2-carboxylic acid 4-trifluoromethoxy-benzylamide]",–,–,< 0.1,< 0.1
"COC(=O)CCC(=O)N1CCN(S(=O)(=O)c2ccc(C(F)(F)F)cc2)[C@@H](C(=O)NCc2ccc(C(C)C)cc2)C1 [Example 173, 4-[(R)-3-(4-isopropyl-benzylcarbamoyl)-4-(4-trifluoromethyl-benzenesulfonyl)-piperazin-1-yl]-4-oxo-butyric acid methyl ester]",–,–,0.1 to 1,0.1 to 1
